# Experimental data as given in patent publication US11154566B2, “Composition for preventing hair loss or promoting hair growth” (CK BIOTECH, priority 2017, dated 2021).
# Experiment: Solubility of indirubin derivative in oils and surfactants (LC/MS/MS)
# Assay type: physicochemical
# Settings: thermodynamic from solid, 72 hours at 37° C.
# Experimental: To determine emulsion solution, solubility of indirubin derivative, embodiment 2 is measured in the several oil and surfactants. After enough amount of indirubin derivative powder made from manufacturing example 2 is putted into each oil or surfactants (1 ml), it was into vortexing 30 min. The equilibrium state was reached by shaking for 72 hours at 37° C. with 50 rpm speed in an incubator, then centrifuged at 16,100×g for 5 min. The supernatant was diluted with methanol and analyzed by LC/MS/MS. The kind of above oil or surfactants and measured solubility are shown below table 1.
# ‘Waters xevo TQ MS-ACQUITY UPLC System’ is used as an analyses equipment. ACQUITY UPLC® BEH (C18, 1.7 μm, 2.1×50 mm) column was used for analyses at room temperature. Mobile phase is used after filtration of deionized distilled water including 0.1% formic acid and acetonitrile including 0.1% formic acid (30:70, v/v) with […] membrane filter. The flow rate is 0.25 ml/min and it is analyzed by injection of 0.5 μl sample. There are LC/MS/MS conditions for Decursin analysis; Cone 38 V, Collison 32 V. Precursor ion and daughter ion are monitored 329 and 229 m/z, respectively.
structure (smiles),measurement,setting,value
"CO/N=C1/C(=C2/C(=O)Nc3cc(Cl)c(Cl)cc32)Nc2ccccc21 [Embodiment A3051, 5,6-dichloroindirubin-3′-methoxime]",solubility at 72 h,"aqueous with cosolvent or surfactant or cyclodextrin, in Kolliphor EL",5400 µg/mL
same,solubility at 72 h,"aqueous with cosolvent or surfactant or cyclodextrin, in Tween 20",4580 µg/mL
same,solubility at 72 h,"aqueous with cosolvent or surfactant or cyclodextrin, in Tween 80",4920 µg/mL
same,solubility at 72 h,"oil or lipid, in Olive oil",830 µg/mL
same,solubility at 72 h,"oil or lipid, in Sunflower oil",1350 µg/mL
same,solubility at 72 h,"organic solvent or mixture, in PEG 400",3100 µg/mL
same,solubility at 72 h,"organic solvent or mixture, in Propylene glycol",250 µg/mL
same,solubility at 72 h,"organic solvent or mixture, in Transcutor P",1150 µg/mL
